Reference: paper PMC12645191, “Dicarboxylate and dicarboxylic acid appended supramolecular self-associating amphiphiles as antimicrobial agents against high priority bacterial pathogens” (Organic & Biomolecular Chemistry, 2025)
Converted amounts (≈) assume the structure as drawn. “And” between values parts separate entries of the source, which are not always exact repeats. Identical values can stand only once. Values belong to the compound of their own block, whether it stands above or below them.

Assays:
E. faecium NCTC 12204 = experiment: inhibition of bacterial growth, OD600 after 20 h; format: cell-based, Enterococcus faecium; details: SSA 5.0 mM, 2.5% ethanol, negative = enhanced growth
Procedure: (§1) With the self-associative properties of 1–10 established, the antimicrobial activity of these SSAs were determined against a panel of clinically relevant, high-priority pathogens including: P. aeruginosa PAO1; Klebsiella pneumonia (K. pneumoniae) M6; E. coli NCTC 12923; Acinetobacter baumannii (A. baumannii) ATCC 17978; S. aureus ATCC 9144; Enterococcus faecalis (E. faecalis) NCTC 775; and Enterococcus faecium (E. faecium) NCTC 12204. […] However, it should be noted that the SSA stock solution was prepared in a H2O 5% EtOH solution, to ensure that the SSA aggregates formed were in line with those characterised within the scope of the SSA self-association studies.
(§2) Section 3: Biological methods
(§3) These methods were taken directly from UK Health and Security Office (UKHSA) standard […]
(§4) Preparation of Luria Broth media (LB): Yeast extract (5.0 g), tryptone (10.0 g) and sodium chloride (10.0 g) were dissolved in dH₂O (1.0 L) then divided into bottles and autoclaved.
(§5) Preparation of Luria Broth (LB) agar plates: Agar (6.0 g) was added to LB (400 mL) and autoclaved. Once cool, the LB agar was poured into sterile petri dishes under sterile conditions and allowed to set. LB plates were stored at 4 °C until use.
(§6) Preparation of bacterial plates: Sterile LB agar plates were streaked using streaked using the desired bacteria i) Pseudomonas aeruginosa (P.aeruginosa) PAO1, ii) Klebsiella pneumoniae (K. pneumoniae) M6 iii) E. coli NCTC 12923 and iv) Acinetobacter baumannii (A. baumannii) ATCC 17978 and Gram-positive i) Staphylococcus aureus (S. aureus) ATCC 9144 ii) Enterococcus faecalis (E. faecalis) NCTC 775 and iii) Enterococcus faecium (E. faecium ) NCTC 12204, then incubated at 37 °C overnight.
(§7) Preparation of Inoculum: An initial culture was made up by inoculating LB media (5 mL) with a single colony of bacteria under sterile conditions and incubated at 37 °C with shaking overnight. The following day, overnight bacterial cultures were subcultured into fresh LB medium to a starting OD600 of 0.01.
(§8) Preparation of 96 well microplate for MIC50: The 1:100 cell suspension (150 µL) was dispensed into individual wells under sterile conditions. SSAs (30 µL) were added to the wells to equal a total volume of 180 µL in the wells. Six repeats of each concentration for each SSA were created each plate. The plates were sealed using parafilm, then incubated at 37 °C in a microplate reader for 20 hours. OD600 endpoint data was used to generate growth curves. […]

[1] = kinetic solubility determination in PBS pH 7.4; details: upper limit set at 300 µM; for solubility: PBS, pH 7.4, aqueous buffer, kinetic from dmso stock, Solubility in PBS pH 7.4, kinetic
[2] = dynamic light scattering (DLS) of SSA aggregates; format: physicochemical; details: 5.6 mM, H2O 5.0% EtOH, 298 K
Procedure: Dynamic light scattering (DLS) and zeta potential measurements in H2O 5.0% EtOH were used to determine the hydrodynamic diameter (dH) and stability of the higher-order SSA aggregates detected by (Q) ^1H NMR spectroscopy at 5.6 mM, Table 1. […] However, we are unable to confidently report a dH for 1 due to the instability of this system, which is supported by a zeta potential value of −26 mV, obtained for this SSA under the same experimental conditions. […] Due to the instability of these systems in the absence of solvent, attempts to further characterise these systems through SEM or AFM are not possible.[48]

[3] = quantitative (Q) 1H NMR spectroscopy, proportion of SSA becoming NMR silent (higher-order aggregates); format: physicochemical
Procedure: To confirm the presence of higher order self-associative structures quantitative (Q) ^1H NMR spectroscopy studies were undertaken at 5.6 mM in D2O 5% EtOH. Here the ^1H NMR resonances attributed to the EtOH are used as an internal standard.
Table S1 – Overview of results of the quantitative (Q) 1H NMR studies for 1, 3, 5, 7 and 9
5.0 % EtOH . Values given in % represent the observed proportion of the SSA that has become
Table S2 – Overview of results of the quantitative (Q) 1H NMR studies for 2, 4, 6, 8 and 10
5.0 % EtOH. Values given in % represent the observed proportion of anion and cation that has

E. coli NCTC 12923 = experiment: inhibition of bacterial growth, OD600 after 20 h; format: cell-based, Escherichia coli; details: SSA 5.0 mM, 2.5% ethanol, negative = enhanced growth
Procedure: as §1, §2, §3, §4, §5, §6, §7, §8

P. aeruginosa PAO1 = experiment: inhibition of bacterial growth, OD600 after 20 h; format: cell-based, Pseudomonas aeruginosa; details: SSA 5.0 mM, 2.5% ethanol, negative = enhanced growth
Procedure: as §1, §2, §3, §4, §5, §6, §7, §8

solubility [1]: 305 µM (≈ 105 µg/mL) | Polydispersity index (%) ([2]; listed as 9): 25.6 (± 1.0) % | dH (DLS intensity distribution peak 1 maxima) ([2]; listed as 9): 178 nm | (Q) 1H NMR spectroscopy, proportion NMR silent, acid or anion ([3]; 5.6 mM, D2O 5.0% EtOH, 298 K, listed as 9): 40.9% and 41%
Structure (SMILES): O=C(O)CC[C@H](NC(=O)Nc1ccc(Br)cc1)C(=O)O [SSA 9]
Percentage inhibition of bacterial growth, NCTC 12204 (E. faecium) (E. faecium NCTC 12204; listed as 9): 44.44% and 44% | Percentage inhibition of bacterial growth, NCTC 12923 (E. coli) (E. coli NCTC 12923; listed as 9): 62.96% and 63%

solubility [1]: 310 µM (≈ 104 µg/mL) | DLS Peak 2 maxima ([2]; listed as 3): 1410 nm | Polydispersity index (%) ([2]; listed as 3): 20.2 (± 0.7) % | dH (DLS intensity distribution peak 1 maxima) ([2]; listed as 3): 154 nm | (Q) 1H NMR spectroscopy, proportion NMR silent, acid or anion ([3]; 5.6 mM, D2O 5.0% EtOH, 298 K, listed as 3): 34% | (Q) 1H NMR, proportion NMR silent, SSA acid or anion ([3]; ~112 mM, DMSO-d6 1.0% DCM): 0%
Structure (SMILES): O=C(O)CC[C@@H](NC(=O)Nc1ccc(C(F)(F)F)cc1)C(=O)O [SSA 3]
Percentage inhibition of bacterial growth, PAO1 (P. aeruginosa) (P. aeruginosa PAO1; listed as 3): -35.71% and −36% | inhibition at 5000 µM (E. faecium NCTC 12204; Enterococcus faecium, NCTC12204, 20 h, read-out: Percentage inhibition of bacterial growth, NCTC 12204 (E. faecium)): 99.4% | Percentage inhibition of bacterial growth, NCTC 12204 (E. faecium) (E. faecium NCTC 12204; listed as 3): 99% | Percentage inhibition of bacterial growth, NCTC 12923 (E. coli) (E. coli NCTC 12923; listed as 3): 59.91% and 60%

Solubility in PBS pH 7.4 ([1]; kinetic): 297.29 μM | Polydispersity index (%) [2]: 18.2 (± 1.1) % | dH (DLS intensity distribution peak 1 maxima) [2]: 140 nm | (Q) 1H NMR spectroscopy, proportion NMR silent, acid or anion ([3]; 5.6 mM, D2O 5.0% EtOH, 298 K): 39.8% and ~40% | (Q) 1H NMR spectroscopy, proportion NMR silent, cation ([3]; 5.6 mM, D2O 5.0% EtOH, 298 K): 36.3% and 36% | (Q) 1H NMR, proportion NMR silent, SSA acid or anion ([3]; ~112 mM, DMSO-d6 1.0% DCM): 0% | (Q) 1H NMR, proportion NMR silent, cation ([3]; ~112 mM, DMSO-d6 1.0% DCM): 0%
Structure (SMILES): O=C(O)CC[C@H](NC(=O)Nc1ccc(C(F)(F)F)cc1)C(=O)O [SSA 2]
Percentage inhibition of bacterial growth, PAO1 (P. aeruginosa) (P. aeruginosa PAO1): -11.25% and −11% | Percentage inhibition of bacterial growth, NCTC 12204 (E. faecium) (E. faecium NCTC 12204): 66.25% and 66% | Percentage inhibition of bacterial growth, NCTC 12923 (E. coli) (E. coli NCTC 12923): 6.06% and 6%

solubility [1]: 303 µM (≈ 101 µg/mL) | (Q) 1H NMR spectroscopy, proportion NMR silent, acid or anion ([3]; 5.6 mM, D2O 5.0% EtOH, 298 K): 38.5% and 39% | (Q) 1H NMR, proportion NMR silent, SSA acid or anion ([3]; ~112 mM, DMSO-d6 1.0% DCM): 0%
Structure (SMILES): O=C(O)CC[C@H](NC(=O)Nc1ccc(C(F)(F)F)cc1)C(=O)O [SSA 1]
Percentage inhibition of bacterial growth, PAO1 (P. aeruginosa) (P. aeruginosa PAO1): -28.56% and −29% | Percentage inhibition of bacterial growth, NCTC 12204 (E. faecium) (E. faecium NCTC 12204): 99.02% and 99% | Percentage inhibition of bacterial growth, NCTC 12923 (E. coli) (E. coli NCTC 12923): 64.03% and 64%
